Measurements reported in ChEMBL document CHEMBL2331254, “Pyrrolopyrimidine inhibitors of DNA gyrase B (GyrB) and topoisomerase IV (ParE), Part II: development of inhibitors with broad spectrum, Gram-negative antibacterial activity” (Bioorg Med Chem Lett, 2013).
Converted amounts (≈) assume the structure as drawn.

Columns and labels:
[1] = Inhibition of Francisella tularensis GyrB assessed as release of inorganic phosphate from ATP hydrolysis after 30 mins by coupled spectrophotometric assay
Escherichia coli [2] = experiment: Antibacterial activity against permeabilized Escherichia coli IBAS849 by broth microdilution method; assay type: functional
Staphylococcus aureus [3] = experiment: Antibacterial activity against Staphylococcus aureus ATCC 13709 by broth microdilution method; assay type: functional
Escherichia coli [4] = experiment: Antibacterial activity against wild type Escherichia coli ATCC 25922 by broth microdilution method; assay type: functional
[5] = Inhibition of Escherichia coli parE assessed as release of inorganic phosphate from ATP hydrolysis after 30 mins by coupled spectrophotometric assay
[6] = Inhibition of Escherichia coli GyrB assessed as release of inorganic phosphate from ATP hydrolysis after 30 mins by coupled spectrophotometric assay
Escherichia coli [7] = experiment: Antibacterial activity against Escherichia coli BW25113 harboring deltatolC by broth microdilution method; assay type: functional
Pseudomonas aeruginosa = experiment: Antibacterial activity against Pseudomonas aeruginosa PAO1 by broth microdilution method; assay type: functional
Klebsiella pneumoniae = experiment: Antibacterial activity against Klebsiella pneumoniae ATCC 700603 by broth microdilution method; assay type: functional
Streptococcus pneumoniae = experiment: Antibacterial activity against Streptococcus pneumoniae ATCC 51916 by broth microdilution method; assay type: functional
Staphylococcus aureus [8] = experiment: Antibacterial activity against Staphylococcus aureus ATCC 13709 by broth microdilution method in presence of 20% mouse serum; assay type: functional
Escherichia coli [9] = experiment: Antibacterial activity against wild type Escherichia coli ATCC 25922 by broth microdilution method in presence of 20% mouse serum; assay type: functional
Acinetobacter baumannii = experiment: Antibacterial activity against Acinetobacter baumannii ATCC 19606 by broth microdilution method; assay type: functional; conditions: ATCC 19606 = CIP 70.34 = JCM 6841
Haemophilus influenzae = experiment: Antibacterial activity against Haemophilus influenzae ATCC 49247 by broth microdilution method; assay type: functional
[10] = Inhibition of Francisella tularensis parE assessed as release of inorganic phosphate from ATP hydrolysis after 30 mins by coupled spectrophotometric assay

SMILES | Ki [1] | MIC (Escherichia coli [2]) | MIC (Staphylococcus aureus [3]) | MIC (Escherichia coli [4]) | Ki [5] | Ki [6] | MIC (Escherichia coli [7]) | MIC (Pseudomonas aeruginosa) | MIC (Klebsiella pneumoniae) | MIC (Streptococcus pneumoniae) | MIC (Staphylococcus aureus [8]) | MIC (Escherichia coli [9]) | MIC (Acinetobacter baumannii) | MIC (Haemophilus influenzae) | Ki [10]
CCc1[nH]c2nc(Sc3cnc4nccnc4c3)nc(N3C[C@@H]4[C@@H](N)[C@@H]4C3)c2c1Cl | < 1 nM | 0.5 µg/mL (≈ 1.14 µM) | 0.13 µg/mL (≈ 0.296 µM) | 8 µg/mL (≈ 18.2 µM) | 1 nM | < 0.5 nM | 0.5 µg/mL (≈ 1.14 µM) | – | – | – | – | – | – | – | –
CCc1[nH]c2nc(Sc3ccc4ccc[n+]([O-])c4c3)nc(N3C[C@@H]4[C@@H](N)[C@@H]4C3)c2c1Cl | – | 1 µg/mL (≈ 2.21 µM) | ≤ 0.13 µg/mL | 8 µg/mL (≈ 17.7 µM) | < 1 nM | < 0.5 nM | 0.25 µg/mL (≈ 0.552 µM) | – | – | – | – | – | – | – | –
CCc1[nH]c2nc(Sc3cnc4cccnc4c3)nc(N3C[C@@H]4[C@@H](N)[C@@H]4C3)c2c1Cl | – | 1 µg/mL (≈ 2.28 µM) | ≤ 0.06 µg/mL | 4 µg/mL (≈ 9.13 µM) | < 1 nM | < 0.3 nM | 0.25 µg/mL (≈ 0.571 µM) | 8 µg/mL (≈ 18.3 µM) | > 64 µg/mL | 0.13 µg/mL (≈ 0.297 µM) | 0.5 µg/mL | 8 µg/mL | 8 µg/mL (≈ 18.3 µM) | 4 µg/mL (≈ 9.13 µM) | 0.6 nM
CCc1[nH]c2nc(Oc3cnc4cccnc4c3)nc(N3C[C@@H]4[C@@H](N)[C@@H]4C3)c2c1Cl | – | 1 µg/mL (≈ 2.37 µM) | ≤ 0.06 µg/mL | 4 µg/mL (≈ 9.48 µM) | 0.9 nM | < 0.3 nM | ≤ 0.06 µg/mL | 8 µg/mL (≈ 19 µM) | 32 µg/mL (≈ 75.8 µM) | ≤ 0.06 µg/mL | 0.13 µg/mL | 4 µg/mL | 4 µg/mL (≈ 9.48 µM) | 1 µg/mL (≈ 2.37 µM) | 0.6 nM
CCc1[nH]c2nc(Sc3cnc4c(c3)c(=O)ncn4C)nc(N3C[C@@H]4[C@@H](N)[C@@H]4C3)c2c1Cl | – | 2 µg/mL (≈ 4.26 µM) | 0.5 µg/mL (≈ 1.07 µM) | 32 µg/mL (≈ 68.2 µM) | 3 nM | 5 nM | 2 µg/mL (≈ 4.26 µM) | – | – | – | – | – | – | – | –
CCc1[nH]c2nc(Sc3cnc4ccc[n+]([O-])c4c3)nc(N3C[C@@H]4[C@@H](N)[C@@H]4C3)c2c1Cl | – | 0.13 µg/mL (≈ 0.286 µM) | 0.03 µg/mL (≈ 0.0661 µM) | 2 µg/mL (≈ 4.41 µM) | 1.7 nM | < 0.3 nM | 0.13 µg/mL (≈ 0.286 µM) | 4 µg/mL (≈ 8.81 µM) | 32 µg/mL (≈ 70.5 µM) | 0.25 µg/mL (≈ 0.551 µM) | 0.13 µg/mL | 4 µg/mL | 4 µg/mL (≈ 8.81 µM) | 2 µg/mL (≈ 4.41 µM) | 2.5 nM
CCc1[nH]c2nc(Sc3ccc4c(N)nc(C)nc4c3)nc(N3CCC(N)C3)c2c1Cl (stereo unspecified) | – | 8 µg/mL (≈ 17.6 µM) | 2 µg/mL (≈ 4.4 µM) | 16 µg/mL (≈ 35.2 µM) | 2 nM | < 0.5 nM | 2 µg/mL (≈ 4.4 µM) | – | – | – | – | – | – | – | –
CCc1[nH]c2nc(Sc3ccc4c(N5CCC(N)C5)nc(C(=O)O)nc4c3)nc(N3CCC(N)C3)c2c1Cl (stereo unspecified) | – | 4 µg/mL (≈ 7.22 µM) | 8 µg/mL (≈ 14.4 µM) | 8 µg/mL (≈ 14.4 µM) | 1 nM | < 0.5 nM | 8 µg/mL (≈ 14.4 µM) | – | – | – | – | – | – | – | –
CCc1[nH]c2nc(Sc3ccc4c(N5CC(N)C5)ncnc4c3)nc(N3CCC(N)C3)c2c1Cl (stereo unspecified) | – | 8 µg/mL (≈ 16.1 µM) | 16 µg/mL (≈ 32.3 µM) | 8 µg/mL (≈ 16.1 µM) | 7 nM | < 0.5 nM | 4 µg/mL (≈ 8.06 µM) | – | – | – | – | – | – | – | –
CCc1[nH]c2nc(Sc3ccc4cccnc4c3)nc(N3C[C@@H]4[C@@H](N)[C@@H]4C3)c2c1Cl | – | 4 µg/mL (≈ 9.15 µM) | 0.25 µg/mL (≈ 0.572 µM) | > 64 µg/mL | 6 nM | 1 nM | 1 µg/mL (≈ 2.29 µM) | – | – | – | – | – | – | – | –
CCc1[nH]c2nc(Sc3ccc4nccnc4c3)nc(N3C[C@@H]4[C@@H](N)[C@@H]4C3)c2c1Cl | – | 0.25 µg/mL (≈ 0.571 µM) | ≤ 0.13 µg/mL | > 64 µg/mL | 1 nM | < 0.5 nM | 0.25 µg/mL (≈ 0.571 µM) | – | – | – | – | – | – | – | –
